Results: ChEMBL document CHEMBL3991601, “The target landscape of clinical kinase drugs” (Science, 2017)
Calls of active or inactive are those of the source. Cut-off read from the data, not from the text of the source, for most assays here: actives have a measured Kd and inactives only a lower limit.

Tests used:
[1] = target: T1, MAP kinase-activated protein kinase 5 (Homo sapiens, UniProt Q8IW41)
T1 sequence (Q8IW41 whole entry): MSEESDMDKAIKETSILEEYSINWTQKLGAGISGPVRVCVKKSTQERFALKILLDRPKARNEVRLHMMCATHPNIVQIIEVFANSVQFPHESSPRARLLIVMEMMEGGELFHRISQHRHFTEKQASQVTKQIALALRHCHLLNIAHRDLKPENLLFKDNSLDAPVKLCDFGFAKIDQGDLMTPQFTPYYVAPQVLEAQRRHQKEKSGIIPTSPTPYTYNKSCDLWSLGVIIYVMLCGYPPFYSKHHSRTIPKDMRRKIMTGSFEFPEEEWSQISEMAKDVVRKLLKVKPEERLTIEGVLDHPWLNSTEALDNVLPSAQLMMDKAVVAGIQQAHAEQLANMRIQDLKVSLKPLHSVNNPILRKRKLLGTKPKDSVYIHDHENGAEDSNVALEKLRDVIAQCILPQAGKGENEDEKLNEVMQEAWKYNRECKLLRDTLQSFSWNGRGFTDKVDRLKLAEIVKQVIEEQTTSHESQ

[2] = target: Macrophage-stimulating protein receptor (Homo sapiens, UniProt Q04912)
[3] = target: Casein kinase I isoform delta (Homo sapiens, UniProt P48730)
[4] = target: RAC-gamma serine/threonine-protein kinase (Homo sapiens, UniProt Q9Y243)
[5] = target: 5'-AMP-activated protein kinase catalytic subunit alpha-1 (Homo sapiens, UniProt Q13131)
[6] = target: T2, Ras-related protein Rab-27A (Homo sapiens, UniProt P51159)
T2 sequence (P51159 whole entry): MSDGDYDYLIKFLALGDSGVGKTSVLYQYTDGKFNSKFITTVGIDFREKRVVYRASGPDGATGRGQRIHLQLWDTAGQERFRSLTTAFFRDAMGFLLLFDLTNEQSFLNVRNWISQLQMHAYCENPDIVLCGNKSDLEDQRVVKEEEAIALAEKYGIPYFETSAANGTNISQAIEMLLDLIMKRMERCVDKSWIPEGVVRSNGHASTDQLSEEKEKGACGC

[7] = target: cAMP-dependent protein kinase catalytic subunit alpha (Homo sapiens, UniProt P17612)
[8] = target: Mitogen-activated protein kinase kinase kinase 20 (Homo sapiens, UniProt Q9NYL2)
[9] = target: Protein-tyrosine kinase 6 (Homo sapiens, UniProt Q13882)
[10] = target: Tyrosine-protein kinase ABL2 (Homo sapiens, UniProt P42684)
[11] = target: Ribosomal protein S6 kinase alpha-4 (Homo sapiens, UniProt O75676)
[12] = target: T3, NUAK family SNF1-like kinase 2 (Homo sapiens, UniProt Q9H093)
T3 sequence (Q9H093 whole entry): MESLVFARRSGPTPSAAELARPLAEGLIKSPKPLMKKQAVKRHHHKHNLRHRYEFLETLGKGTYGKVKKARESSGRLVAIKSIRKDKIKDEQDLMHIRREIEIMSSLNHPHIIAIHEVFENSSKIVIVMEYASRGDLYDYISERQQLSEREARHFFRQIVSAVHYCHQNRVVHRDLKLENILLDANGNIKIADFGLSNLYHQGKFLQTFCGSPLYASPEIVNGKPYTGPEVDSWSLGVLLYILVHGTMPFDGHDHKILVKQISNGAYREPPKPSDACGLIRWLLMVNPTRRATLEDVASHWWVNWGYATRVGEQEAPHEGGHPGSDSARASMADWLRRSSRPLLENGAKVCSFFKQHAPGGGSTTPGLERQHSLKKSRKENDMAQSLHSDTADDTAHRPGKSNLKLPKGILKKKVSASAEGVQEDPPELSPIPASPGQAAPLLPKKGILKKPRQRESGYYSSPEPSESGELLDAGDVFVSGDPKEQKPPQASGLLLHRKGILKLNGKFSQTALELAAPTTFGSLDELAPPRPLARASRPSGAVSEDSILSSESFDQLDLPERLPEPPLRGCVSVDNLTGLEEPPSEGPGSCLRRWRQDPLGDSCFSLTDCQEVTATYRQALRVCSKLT

[13] = target: T4, Mitogen-activated protein kinase 15 (Homo sapiens, UniProt Q8TD08)
T4 sequence (Q8TD08 whole entry): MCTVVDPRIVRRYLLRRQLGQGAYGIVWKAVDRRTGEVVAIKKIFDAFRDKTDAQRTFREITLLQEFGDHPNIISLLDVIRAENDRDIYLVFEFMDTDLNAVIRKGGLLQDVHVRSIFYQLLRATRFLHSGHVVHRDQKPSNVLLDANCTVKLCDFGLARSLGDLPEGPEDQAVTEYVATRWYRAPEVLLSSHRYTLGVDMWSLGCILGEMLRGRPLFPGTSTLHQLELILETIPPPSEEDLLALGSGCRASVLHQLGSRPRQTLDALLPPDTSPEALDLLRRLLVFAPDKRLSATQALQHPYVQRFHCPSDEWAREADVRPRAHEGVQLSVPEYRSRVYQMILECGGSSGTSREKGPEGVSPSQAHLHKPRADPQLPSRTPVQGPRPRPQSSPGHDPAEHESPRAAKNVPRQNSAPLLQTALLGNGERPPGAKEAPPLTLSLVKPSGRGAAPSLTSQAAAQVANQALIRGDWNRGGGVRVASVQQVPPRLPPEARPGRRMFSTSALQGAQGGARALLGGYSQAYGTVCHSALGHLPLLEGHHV

Measured: Kd
Note: in the data inactive means no Kd found up to 30 µM.

Macrophage-stimulating protein receptor, sequence (Q04912 25-304 limits assumed): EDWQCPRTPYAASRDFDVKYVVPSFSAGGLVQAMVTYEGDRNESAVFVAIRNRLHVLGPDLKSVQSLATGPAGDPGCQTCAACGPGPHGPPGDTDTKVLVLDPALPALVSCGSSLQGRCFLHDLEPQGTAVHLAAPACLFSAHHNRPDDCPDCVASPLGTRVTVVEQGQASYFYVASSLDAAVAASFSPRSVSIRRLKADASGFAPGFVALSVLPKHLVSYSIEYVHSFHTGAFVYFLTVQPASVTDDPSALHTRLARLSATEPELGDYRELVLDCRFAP
Macrophage-stimulating protein receptor, sequence (Q04912 310-1400 limits assumed): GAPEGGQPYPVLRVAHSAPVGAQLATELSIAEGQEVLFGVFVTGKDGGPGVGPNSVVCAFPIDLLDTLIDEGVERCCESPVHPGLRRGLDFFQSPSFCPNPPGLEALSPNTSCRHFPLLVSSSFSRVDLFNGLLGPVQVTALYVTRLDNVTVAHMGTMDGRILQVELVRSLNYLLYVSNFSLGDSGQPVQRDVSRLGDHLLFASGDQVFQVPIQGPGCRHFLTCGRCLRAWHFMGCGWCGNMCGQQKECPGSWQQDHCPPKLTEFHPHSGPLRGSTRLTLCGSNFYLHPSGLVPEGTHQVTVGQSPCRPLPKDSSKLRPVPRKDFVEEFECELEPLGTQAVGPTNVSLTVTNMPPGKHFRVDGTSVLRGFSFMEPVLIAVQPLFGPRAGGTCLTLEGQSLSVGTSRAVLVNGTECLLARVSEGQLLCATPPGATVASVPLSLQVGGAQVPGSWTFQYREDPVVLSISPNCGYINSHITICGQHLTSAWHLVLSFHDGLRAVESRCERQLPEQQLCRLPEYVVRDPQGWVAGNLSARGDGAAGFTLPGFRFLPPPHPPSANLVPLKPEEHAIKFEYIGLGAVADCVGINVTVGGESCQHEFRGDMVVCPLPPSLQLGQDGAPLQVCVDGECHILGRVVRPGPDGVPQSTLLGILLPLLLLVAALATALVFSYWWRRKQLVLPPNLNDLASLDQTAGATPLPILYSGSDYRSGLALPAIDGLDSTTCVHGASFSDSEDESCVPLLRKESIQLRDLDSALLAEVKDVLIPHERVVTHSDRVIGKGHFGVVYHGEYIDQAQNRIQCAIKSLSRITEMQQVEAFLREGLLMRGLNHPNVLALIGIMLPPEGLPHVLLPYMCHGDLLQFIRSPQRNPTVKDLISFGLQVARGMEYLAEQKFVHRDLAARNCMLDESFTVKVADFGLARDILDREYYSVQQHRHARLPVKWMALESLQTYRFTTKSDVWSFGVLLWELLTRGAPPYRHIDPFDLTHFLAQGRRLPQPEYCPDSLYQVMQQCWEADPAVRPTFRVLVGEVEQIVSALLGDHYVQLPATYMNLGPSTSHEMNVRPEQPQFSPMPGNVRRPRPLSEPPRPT
Protein-tyrosine kinase 6, sequence (Q13882 whole entry): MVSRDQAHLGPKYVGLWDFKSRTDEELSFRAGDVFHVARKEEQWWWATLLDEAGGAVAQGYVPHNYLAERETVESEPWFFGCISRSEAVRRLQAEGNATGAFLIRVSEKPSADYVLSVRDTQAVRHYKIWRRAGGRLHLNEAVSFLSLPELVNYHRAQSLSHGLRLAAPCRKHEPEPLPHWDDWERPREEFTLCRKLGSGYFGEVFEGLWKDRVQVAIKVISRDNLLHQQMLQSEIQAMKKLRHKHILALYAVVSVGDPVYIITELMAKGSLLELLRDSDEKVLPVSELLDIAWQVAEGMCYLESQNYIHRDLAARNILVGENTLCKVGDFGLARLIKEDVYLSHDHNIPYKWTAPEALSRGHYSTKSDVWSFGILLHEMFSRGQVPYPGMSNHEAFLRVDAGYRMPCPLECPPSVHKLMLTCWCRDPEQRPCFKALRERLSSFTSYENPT
Casein kinase I isoform delta, sequence (P48730 whole entry, canonical isoform): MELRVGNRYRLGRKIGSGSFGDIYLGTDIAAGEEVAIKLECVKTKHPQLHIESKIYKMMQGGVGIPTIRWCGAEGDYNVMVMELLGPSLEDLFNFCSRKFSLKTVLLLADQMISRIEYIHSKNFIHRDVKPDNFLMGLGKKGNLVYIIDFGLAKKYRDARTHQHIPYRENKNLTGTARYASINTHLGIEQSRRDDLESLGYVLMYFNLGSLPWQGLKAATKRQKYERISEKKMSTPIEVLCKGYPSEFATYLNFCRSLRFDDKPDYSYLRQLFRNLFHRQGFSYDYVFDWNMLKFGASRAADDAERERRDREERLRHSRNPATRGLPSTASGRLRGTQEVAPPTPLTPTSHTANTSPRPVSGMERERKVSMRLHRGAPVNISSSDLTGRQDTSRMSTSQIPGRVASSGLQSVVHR
Tyrosine-protein kinase ABL2, sequence (P42684 whole entry): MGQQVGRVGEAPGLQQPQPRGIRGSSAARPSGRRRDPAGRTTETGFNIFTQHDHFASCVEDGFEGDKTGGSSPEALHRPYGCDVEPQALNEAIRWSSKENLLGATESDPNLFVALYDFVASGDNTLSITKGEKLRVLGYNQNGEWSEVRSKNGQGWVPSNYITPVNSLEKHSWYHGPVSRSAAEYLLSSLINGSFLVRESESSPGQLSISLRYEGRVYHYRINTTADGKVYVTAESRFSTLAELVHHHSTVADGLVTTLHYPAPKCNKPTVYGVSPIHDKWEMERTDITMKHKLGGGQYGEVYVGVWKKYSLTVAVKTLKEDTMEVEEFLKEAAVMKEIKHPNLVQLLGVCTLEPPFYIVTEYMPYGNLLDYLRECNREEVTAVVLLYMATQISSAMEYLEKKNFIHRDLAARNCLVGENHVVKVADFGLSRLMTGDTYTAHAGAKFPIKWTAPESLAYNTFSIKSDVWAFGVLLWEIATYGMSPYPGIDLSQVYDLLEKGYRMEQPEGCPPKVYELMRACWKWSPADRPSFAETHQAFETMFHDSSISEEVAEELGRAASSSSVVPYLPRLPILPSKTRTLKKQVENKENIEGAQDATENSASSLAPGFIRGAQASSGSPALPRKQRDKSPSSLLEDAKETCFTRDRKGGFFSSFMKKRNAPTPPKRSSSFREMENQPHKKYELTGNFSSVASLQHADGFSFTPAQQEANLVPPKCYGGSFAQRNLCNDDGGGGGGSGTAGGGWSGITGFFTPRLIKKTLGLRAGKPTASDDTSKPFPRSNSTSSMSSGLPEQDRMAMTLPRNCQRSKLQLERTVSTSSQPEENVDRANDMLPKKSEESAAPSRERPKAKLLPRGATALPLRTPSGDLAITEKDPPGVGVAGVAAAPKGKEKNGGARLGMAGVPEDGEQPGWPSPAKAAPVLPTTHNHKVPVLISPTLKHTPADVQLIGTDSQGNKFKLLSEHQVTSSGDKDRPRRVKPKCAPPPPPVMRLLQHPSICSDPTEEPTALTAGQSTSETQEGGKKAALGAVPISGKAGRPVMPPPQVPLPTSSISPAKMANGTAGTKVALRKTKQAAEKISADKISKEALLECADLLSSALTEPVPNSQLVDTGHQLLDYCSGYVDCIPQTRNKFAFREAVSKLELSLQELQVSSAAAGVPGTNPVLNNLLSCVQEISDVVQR
5'-AMP-activated protein kinase catalytic subunit alpha-1, sequence (Q13131 whole entry): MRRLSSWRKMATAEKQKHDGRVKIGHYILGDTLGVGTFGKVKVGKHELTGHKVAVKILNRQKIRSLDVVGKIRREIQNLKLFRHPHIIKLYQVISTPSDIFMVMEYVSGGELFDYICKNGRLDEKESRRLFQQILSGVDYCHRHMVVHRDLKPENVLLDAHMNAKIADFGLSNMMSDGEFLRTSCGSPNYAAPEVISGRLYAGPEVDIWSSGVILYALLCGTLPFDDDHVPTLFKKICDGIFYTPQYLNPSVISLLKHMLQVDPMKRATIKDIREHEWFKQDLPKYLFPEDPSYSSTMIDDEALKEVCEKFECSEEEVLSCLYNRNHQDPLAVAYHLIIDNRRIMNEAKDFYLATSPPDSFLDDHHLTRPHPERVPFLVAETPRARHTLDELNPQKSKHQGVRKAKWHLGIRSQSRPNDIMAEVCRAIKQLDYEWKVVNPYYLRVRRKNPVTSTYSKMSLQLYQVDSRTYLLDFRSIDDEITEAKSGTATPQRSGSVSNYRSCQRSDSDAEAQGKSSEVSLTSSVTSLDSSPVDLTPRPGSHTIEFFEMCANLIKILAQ
RAC-gamma serine/threonine-protein kinase, sequence (Q9Y243 whole entry): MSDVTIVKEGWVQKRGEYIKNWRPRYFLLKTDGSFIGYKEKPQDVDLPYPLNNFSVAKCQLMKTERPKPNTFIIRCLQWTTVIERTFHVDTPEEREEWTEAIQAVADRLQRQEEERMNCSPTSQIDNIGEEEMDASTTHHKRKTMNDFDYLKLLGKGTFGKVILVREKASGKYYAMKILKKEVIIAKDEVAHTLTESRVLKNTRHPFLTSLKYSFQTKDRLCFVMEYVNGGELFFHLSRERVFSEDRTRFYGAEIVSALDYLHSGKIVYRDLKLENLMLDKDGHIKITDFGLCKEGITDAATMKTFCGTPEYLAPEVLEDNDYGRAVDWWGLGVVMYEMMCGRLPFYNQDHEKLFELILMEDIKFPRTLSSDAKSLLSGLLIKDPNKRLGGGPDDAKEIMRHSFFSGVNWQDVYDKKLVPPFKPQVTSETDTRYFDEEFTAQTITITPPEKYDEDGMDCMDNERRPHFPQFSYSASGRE

Cc1c(NC(=O)OC[C@@H]2COCCN2)cn2ncnc(Nc3ccc4c(cnn4Cc4cccc(F)c4)c3)c12 [AC-480]
inactive: [1] > 30 µM | [2] > 30 µM | [3] > 30 µM | [4] > 30 µM | [5] > 30 µM | [6] > 30 µM | [7] > 30 µM | [8] > 30 µM | [9] > 30 µM | [10] > 30 µM | [11] > 30 µM | [12] > 30 µM | [13] > 30 µM

O[C@H]1CC[C@H](Nc2ncc3nc(Nc4c(F)cc(F)cc4F)n([C@H]4CCOC4)c3n2)CC1 [TANZISERTIB]
inactive: [1] > 30 µM | [2] > 30 µM | [3] > 30 µM | [4] > 30 µM | [5] > 30 µM | [6] > 30 µM | [7] > 30 µM | [8] > 30 µM | [9] > 30 µM | [10] > 30 µM | [11] > 30 µM | [12] > 30 µM | [13] > 30 µM
